Experimental data reported in patent US20260184726A1, “HETEROCYCLIC COMPOUNDS AS KINASE INHIBITORS, COMPOSITIONS, AND METHODS OF USE THEREOF” (JS INNOMED HOLDINGS LTD., priority 2022, published 2026).

Columns and labels:
[1] = molecular target: T1, human Aurora B kinase (Homo sapiens, UniProt Q96GD4); assay: Aurora B Kinase Assay (mobility shift assay, ATP at Km); type: biochemical; conditions: 15 μM ATP (Km), read-out: AurB Enzymatic Activity
T1 construct: purchased Carna 05-102
Description: Compounds were tested by Mobility shift assay with ATP concentration at Km. The assay used human Aurora B kinase (Carna 05-102). Test compounds were prepared and diluted in DMSO in 3-fold serial dilutions to 50× of the final testing concentrations. The compounds were then further diluted to 5× by the kinase reaction buffer (50 mM HEPES pH 7.5, 0.0015% Brij-35). The enzymatic reaction for compound testing was performed in a white 384-well polypropylene plate (Corning 3573) with a total reaction volume of 25 μl containing 9 nM Aurora B, 3 μM peptide substrate FAM-P21 (GL Biochem 116370), and 15 μM ATP (Sigma A7699-1G). The assay started with loading Aurora B diluted in kinase reaction buffer to wells, followed by addition of equal volume of 5× compounds for 15-min incubation at the room temperature for pre-treatment. The enzymatic reaction was initiated by addition of mixture of the substrate and ATP prepared in kinase reaction buffer. After incubation at 28° C. for one hour, 25 μl of stopper buffer (a mixture of 100 mM HEPES pH 7.5 buffer, 0.015% Brij-35, 50 mM EDTA and 0.2% of coating reagent 3 (Cliper Lifesciences)). After 30 minutes of incubation at room temperature, the plate was read in a Caliper. Percent of control was calculated as the percentage of compound-treated vs 2% DMSO vehicle-treated. The dose-response curves were generated and the IC50 values were calculated by nonlinear sigmoid curve fitting using XLFit.

[2] = molecular target: T2, BAF3-KIF5B-RET cells (Homo sapiens, UniProt P07949); assay: BAF3-KIF5B-RET Cell Proliferation Assay (CellTiter-Glo); type: cell-based; conditions: growth inhibition, 72 hours; Table 2; read-out: BA/F3-KIF5B-RET Cellular activity
T2 construct: fused on or other part: P33176 (Kinesin-1 heavy chain)
T2 sequence (P07949 whole entry, change not shown, the tested form may be a part): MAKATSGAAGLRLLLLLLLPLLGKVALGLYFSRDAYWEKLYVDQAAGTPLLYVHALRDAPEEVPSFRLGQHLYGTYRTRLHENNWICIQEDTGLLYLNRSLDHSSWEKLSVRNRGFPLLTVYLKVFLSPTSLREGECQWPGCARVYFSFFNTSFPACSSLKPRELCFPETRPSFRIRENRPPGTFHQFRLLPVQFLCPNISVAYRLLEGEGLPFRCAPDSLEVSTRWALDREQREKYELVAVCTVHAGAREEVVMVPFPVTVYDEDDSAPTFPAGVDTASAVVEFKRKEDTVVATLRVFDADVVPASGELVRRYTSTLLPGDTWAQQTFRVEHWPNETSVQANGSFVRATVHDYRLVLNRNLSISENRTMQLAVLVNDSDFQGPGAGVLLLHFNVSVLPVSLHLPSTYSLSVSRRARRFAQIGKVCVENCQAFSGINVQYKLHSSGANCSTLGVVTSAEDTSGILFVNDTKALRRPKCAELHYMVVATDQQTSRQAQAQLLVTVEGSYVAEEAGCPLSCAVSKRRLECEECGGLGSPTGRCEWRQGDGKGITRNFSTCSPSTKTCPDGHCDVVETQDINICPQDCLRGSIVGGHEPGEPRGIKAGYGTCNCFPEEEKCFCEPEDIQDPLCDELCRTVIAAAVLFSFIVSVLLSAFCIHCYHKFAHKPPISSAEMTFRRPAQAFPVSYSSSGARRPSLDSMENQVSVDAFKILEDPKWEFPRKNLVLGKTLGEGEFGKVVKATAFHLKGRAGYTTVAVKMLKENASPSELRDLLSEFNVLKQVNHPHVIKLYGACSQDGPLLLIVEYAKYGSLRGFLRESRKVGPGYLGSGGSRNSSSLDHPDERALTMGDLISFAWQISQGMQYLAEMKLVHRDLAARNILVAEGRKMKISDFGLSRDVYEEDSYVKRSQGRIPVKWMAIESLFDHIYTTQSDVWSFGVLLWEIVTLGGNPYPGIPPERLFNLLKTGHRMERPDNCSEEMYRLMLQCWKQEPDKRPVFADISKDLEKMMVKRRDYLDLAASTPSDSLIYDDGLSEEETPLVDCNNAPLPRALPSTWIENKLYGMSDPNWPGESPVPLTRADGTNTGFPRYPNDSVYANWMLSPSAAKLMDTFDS
Method in brief: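 Ba/F3 cells driven by KIF5B-RET (wild-type, V804M or G810R) or TEL-RET-M918T, 2,000 per well in RPMI/10% FBS, attached 24 h. Treated 72 h at 37° C with compound from 0.00015 to 1 μM final, 0.1% DMSO. CellTiter-Glo luminescence relative to DMSO wells gave IC50.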

[3] = tested on: BAF3 cells; assay: BAF3 Cell Proliferation Assay (CellTiter-Glo, without RET driven, IL-3); type: cell-based; conditions: Mus musculus; growth inhibition in BAF3 cells, 72 hours, with IL-3; read-out: BAF3 Cellular Activity
Method in brief: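 BAF3 cells in RPMI-1640 with 10% FBS and 1 ng/ml IL-3, seeded 2,000/well and settled 24 h at 37 °C, then exposed to compound at final 10 μM down to 0.0015 μM (0.1% DMSO) for 72 h. Viability by CellTiter-Glo luminescence versus DMSO controls; IC50 from curve fit.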

T1 sequence (Q96GD4 whole entry): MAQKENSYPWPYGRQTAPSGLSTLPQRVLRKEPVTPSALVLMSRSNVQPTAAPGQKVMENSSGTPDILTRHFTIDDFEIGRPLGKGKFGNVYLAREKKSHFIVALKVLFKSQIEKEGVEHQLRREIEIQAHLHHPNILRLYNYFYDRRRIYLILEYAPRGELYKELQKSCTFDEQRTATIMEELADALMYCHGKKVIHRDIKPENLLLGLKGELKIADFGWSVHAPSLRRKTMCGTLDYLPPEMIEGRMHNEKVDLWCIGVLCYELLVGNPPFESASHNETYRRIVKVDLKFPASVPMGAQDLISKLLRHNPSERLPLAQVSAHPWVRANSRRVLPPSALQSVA
T1 sequence (Q9NQS7 803-918 partner limits assumed): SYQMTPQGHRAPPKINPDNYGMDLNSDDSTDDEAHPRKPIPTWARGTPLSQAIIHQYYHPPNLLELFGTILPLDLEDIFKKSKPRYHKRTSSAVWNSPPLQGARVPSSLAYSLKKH

COc1ccc(CN2C3CC2CN(c2ccc(-c4cc(-c5ccc(C(C)(C)NC(C)=O)cn5)cn5ncc(C#N)c45)cn2)C3)cn1 [Example 12, N-(2-(6-(3-cyano-4-(6-(6-((6-methoxypyridin-3-yl)methyl)-3,6-diazabicyclo[3.1.1]heptan-3-yl)pyridin-3-yl)pyrazolo[1,5-a]pyridin-6-yl)pyridin-3-yl)propan-2-yl)acetamide]
IC50 [1]: 25.2 nM | GI50 [2]: 1 nM | IC50 [3]: 1050 nM
